These are literature values, as cited in patent publication US10245278B2 (priority 2013, dated 2019).

Like-named read-outs stand apart in the source and are kept apart here.

The conditions of data set [1]: intermittent claudication; oral 8 grams twice per day for 3 weeks.
The conditions of data set [2]: menopausal women; oral 14 grams per day for 6 months.
The conditions of data set [3]: even at doses of 9 or 10 grams twice per day.
The conditions of data set [4]: angina pectoris or congestive heart failure; oral, at least 6 grams per day for 6 weeks.
The conditions of data set [5]: slightly hypertensive persons; oral 12 grams per day in three administrations for 4 weeks.
The conditions of data set [6]: heart transplant patients; 6 grams per day for several weeks.
The conditions of data set [7]: male subjects; 8 grams in a single administration one or two hours before relations.

As for `N=C(N)NCCC[C@H](N)C(=O)O` [arginine, L-arginine], the walking range entry in data set [1] was “enabled their walking range to be increased”. The muscular force result in data set [2] is “resulted in increasing muscular force”. The side effects entry in data set [3] is reported as “very few side effects”. Besides, the “ability to withstand physical effort” value in data set [4] is given as “improves the ability to withstand physical effort”. For the same molecule, the arterial pressure result in data set [5] is recorded as “reduced the arterial pressure significantly”.

With L-arginine aspartate, the “ability to withstand physical effort” value in data set [6] is “same result”. Moreover, in data set [7], the moderate sexual dysfunction entry is on record as “significantly improved their disorder”.
